Results on 26 molecules are retold here after PubChem BioAssay AID624167 (Sanford-Burnham Center for Chemical Genomics, 2012).

pIC50: −log10 of the molar value. Active and inactive are the calls of the source.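 How the source made its calls: active means mean IC50 for reducing PEG3 promoter reporter signal at or below a set limit, with IC50 above the limit in both counter screens; inactive means the rest, including counter screen hits.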

Test [1] has as its target PEG-3 (UniProt Q6IN02). The test can be described thus: inhibition of PEG-3 promoter-driven reporter – cell-based, HeLa, luciferase, CREF/GAPDH counter-screen panel, dose response (AID 624167). As to conditions: HeLa PEG-Prom luciferase reporter, overnight, CREF/GAPDH counter-screens, mean of runs.
Test [2] deals with PEG-3. Described as above. The following applies: HeLa PEG-Prom luciferase reporter, overnight, CREF/GAPDH counter-screens.
[3] abbreviates: run 1, dose range 1, individual replicate IC50 per panel.
Setting [4] is: run 2, dose range 1, individual replicate IC50 per panel.

PEG-3 (UniProt Q6IN02), sequence (Q6IN02 whole entry, looked up): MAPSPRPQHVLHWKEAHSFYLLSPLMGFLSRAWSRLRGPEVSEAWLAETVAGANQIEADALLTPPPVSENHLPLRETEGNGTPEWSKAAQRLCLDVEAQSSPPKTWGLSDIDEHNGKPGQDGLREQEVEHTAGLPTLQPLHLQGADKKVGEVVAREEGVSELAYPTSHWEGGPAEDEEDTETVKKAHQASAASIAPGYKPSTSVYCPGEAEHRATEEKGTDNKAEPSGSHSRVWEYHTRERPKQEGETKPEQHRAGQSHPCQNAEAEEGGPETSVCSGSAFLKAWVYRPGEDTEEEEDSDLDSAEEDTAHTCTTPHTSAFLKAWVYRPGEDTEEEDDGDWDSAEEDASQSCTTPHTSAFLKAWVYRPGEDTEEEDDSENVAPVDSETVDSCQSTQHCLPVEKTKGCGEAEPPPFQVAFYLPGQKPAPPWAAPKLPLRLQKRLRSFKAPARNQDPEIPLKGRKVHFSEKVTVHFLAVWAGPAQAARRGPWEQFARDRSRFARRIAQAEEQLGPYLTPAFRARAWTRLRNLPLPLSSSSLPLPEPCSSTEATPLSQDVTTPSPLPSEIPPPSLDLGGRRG

Regarding `O=C1NC(=S)N(c2ccccc2F)C(=O)/C1=C\c1cccs1`, the negative logarithm of the IC50 (pIC50) at PEG-3 [1] was 4.78; with PEG-3 [2] (setting [3]) it was 4.72; in the test on PEG-3 [2] (setting [4]) it was 4.85.
Taken in the same sequence, the figures for `CN(C)CCCN(C(=O)c1ccc(S(=O)(=O)N(C)Cc2ccccc2)cc1)c1nc2cc3c(cc2s1)OCO3` were 4.79, 4.71 and 4.87.
Take `Oc1ccc(C[C@H]2CNCCN2CCc2cc(C(F)(F)F)cc(C(F)(F)F)c2)cc1`: the IC50 result on PEG-3 [1] was “inactive”. Further, the results for the pIC50 in the test with PEG-3 [2] (setting [3]) and in the test with PEG-3 [2] (setting [4]) were 4.57 and 4.70, respectively.
Turning to `Cc1ccc(C(=O)N2CCN(c3ccc([N+](=O)[O-])c(NCc4cccnc4)c3)CC2)cc1`, the values for the negative-log IC50 (pIC50) on PEG-3 [1], in the test on PEG-3 [2] (setting [3]) and in the test on PEG-3 [2] (setting [4]) were 4.78, 4.98 and 4.64, respectively.
Consider `Cc1ccc(-n2cc(CNCCCn3ccnc3C)c(-c3ccc(F)cc3)n2)cc1`, for which the pIC50 on PEG-3 [1] is 4.89; in the test on PEG-3 [2] (setting [3]), 4.81; in the test with PEG-3 [2] (setting [4]) it was 4.98.
Consider `Cc1ccc(C2(CCNCc3ccc(N(C)C)cc3)CCOC(C(C)C)C2)cc1` (stereo not drawn), for which, at PEG-3 [1], the IC50 entry was “inactive”. The pIC50 with PEG-3 [2] (setting [3]) is 4.59; in the test on PEG-3 [2] (setting [4]), 4.67.
Regarding `CCCCCCCn1c(=N)n(CC(O)c2ccco2)c2ccccc21` (stereo not drawn), the IC50 result on PEG-3 [1] is “inactive”. Besides, the pIC50 in the test on PEG-3 [2] (setting [3]) was 4.66; in the test on PEG-3 [2] (setting [4]) it was 4.65.
In the case of `CCN(CC)c1ccc2nc3ccc(N)cc3[n+](-c3ccccc3)c2c1`, the negative-log IC50 (pIC50) is 4.95 on PEG-3 [1], 5.00 with PEG-3 [2] (setting [3]) and 4.91 in the test on PEG-3 [2] (setting [4]).
With `COc1ccc(C)cc1Nc1n[n+](-c2ccccc2)c(-c2ccc(N(C)C)cc2)s1`, on PEG-3 [1], the IC50 result was “inactive”. Moreover, the figures for the pIC50 in the test with PEG-3 [2] (setting [3]) and with PEG-3 [2] (setting [4]) were 4.44 and 4.19, respectively.
In the case of `NC(c1csc(Nc2nccc(C(F)(F)F)n2)n1)C1CCCCC1` (stereo not drawn), the pIC50 at PEG-3 [1] was 4.80; in the test with PEG-3 [2] (setting [3]), 4.72; in the test with PEG-3 [2] (setting [4]) it was 4.89.
Turning to `O=Cc1cn(Cc2ccc([N+](=O)[O-])cc2)c2ccccc12`, at PEG-3 [1], the IC50 is > 100 µM (inactive). The pIC50 with PEG-3 [2] (setting [3]) and in the test on PEG-3 [2] (setting [4]) was below 4.00 each time.
As for `Cc1cc(C)c(CN2CCN(CCCn3cnc(C(=O)Nc4ccc(C)c(C)c4)n3)CC2)c(C)c1`, the results for the negative logarithm of the IC50 (pIC50) on PEG-3 [1], in the test with PEG-3 [2] (setting [3]) and with PEG-3 [2] (setting [4]) were 4.79, 4.72 and 4.88, respectively.
On to `COC(=O)C1=C(C(=O)OC)C(C(=O)OC)C(C(=O)OC)C(C(=O)OC)(C(=O)OC)C(C(=O)OC)=C1C(=O)OC` (stereo not drawn), for which the pIC50 on PEG-3 [1] is 4.86; in the test with PEG-3 [2] (setting [3]), 4.77; in the test with PEG-3 [2] (setting [4]) it was 4.97.
Turning to `CN(Cc1ccccc1)C(=O)c1ccc(Nc2nc(C(N)Cc3ccccc3)cs2)nc1` (stereo not drawn), the pIC50 on PEG-3 [1] was 4.74; with PEG-3 [2] (setting [3]), 4.66; in the test on PEG-3 [2] (setting [4]), 4.83.
As for `O=C(c1ccoc1)N1CCN(c2cc(-c3ccccc3)nc3cc(-c4ccccc4)nn23)CC1`, the pIC50 on PEG-3 [1] was 4.94; with PEG-3 [2] (setting [3]) it was 4.88; in the test on PEG-3 [2] (setting [4]), 5.01.
`COc1cccc(Nc2nc(C(N)C3CCCCC3)cs2)n1` (stereo not drawn): at PEG-3 [1], the IC50 result is “inactive”. In addition, the pIC50 was 4.66 with PEG-3 [2] (setting [3]) and 4.32 in the test on PEG-3 [2] (setting [4]).
For `COc1ccccc1CNC(=O)c1c(N)n(CCCN2CCOCC2)c2nc3ccccc3nc12`, the negative-log IC50 (pIC50) on PEG-3 [1] is 4.85; in the test with PEG-3 [2] (setting [3]), 4.74; in the test on PEG-3 [2] (setting [4]), 5.01.
The like results for `N#C/C(=C\c1cccc([N+](=O)[O-])c1)C(=O)NCc1ccc(Cl)cc1` were, in that order, 4.85, 4.83 and 4.87.
The like results for `CCC(=C(c1ccc(OC)cc1)c1ccc(OC)cc1)c1cn(CC(O)CN2CCN(C)CC2)c2ccccc12` (stereo not drawn) were, in that order, 4.80, 4.72 and 4.90.
As for `CCOC(=O)C1CCN(c2cc3c(cc2NC(=O)c2ccccc2OCC)n(C)c(=O)n3C)CC1`, the IC50 result at PEG-3 [1] is “inactive”. Also, the pIC50 with PEG-3 [2] (setting [3]) is 4.45; in the test on PEG-3 [2] (setting [4]), below 4.00.
Turning to `CCCn1c(=N)n(CC(=O)c2ccc(Cl)cc2)c2ccccc21`, the IC50 result on PEG-3 [1] is “inactive”. The pIC50 in the test on PEG-3 [2] (setting [3]) was 4.72; in the test with PEG-3 [2] (setting [4]), 4.31.
The like results for `C=C(C)Cn1c(SCC(=O)N/N=C/c2c(O)ccc3ccccc23)nc2ccccc2c1=O` were, in that order, > 100 µM (inactive), below 4.00 and below 4.00.
Take `CCn1c(C)cc(C(=O)COC(=O)c2ccccc2[N+](=O)[O-])c1C`: the pIC50 on PEG-3 [1] was 4.73; in the test on PEG-3 [2] (setting [3]), 4.45; in the test on PEG-3 [2] (setting [4]) it was 5.75.
With `Cc1cccc(N=C2Sc3nc4c(C)c(C)ccc4cc3CN2CCN2CCOCC2)c1`, the IC50 entry at PEG-3 [1] is “inactive”. Besides, the pIC50 with PEG-3 [2] (setting [3]) was 4.53; in the test on PEG-3 [2] (setting [4]), 4.49.
Take `COc1ccc(-c2nc3c(C(=O)NCCN(C)C)cccc3c3ccccc23)cc1`: the pIC50 is 4.82 at PEG-3 [1], 4.76 in the test on PEG-3 [2] (setting [3]) and 4.89 with PEG-3 [2] (setting [4]).
On to `COC(=O)Cc1[nH]n(-c2nc3ccccc3s2)c(=O)c1C(C)=Nc1ccc(Cl)cc1`, for which the negative-log IC50 (pIC50) is 4.90 on PEG-3 [1], 4.61 in the test on PEG-3 [2] (setting [3]) and 6.43 in the test on PEG-3 [2] (setting [4]).
